Laboratory results reported in patent US7709443B2, “Cyclic peptide antitumor agents” (Northwestern University, priority 2003, dated 2010).
Values after ≈ are worked out from the molar mass of the structure shown. Like-named read-outs stand apart in the source and are kept apart here. Square brackets hold non-standard residues; d marks the D form. Peptide text beside a SMILES is read from it. Phe(4-Br) = N[C@@H](Cc1ccc(Br)cc1)C(=O)O; Phe(4-I) = N[C@@H](Cc1ccc(I)cc1)C(=O)O; NMeF = CN[C@@H](Cc1ccccc1)C(=O)O; Hica(2S) = CC(C)C[C@H](O)C(=O)O; NMeL = CN[C@@H](CC(C)C)C(=O)O; NMeV = CN[C@H](C(=O)O)C(C)C; Aib = CC(C)(N)C(=O)O

Assays:
[1] = system: MDA-MB231 (Breast) human cancer cell line; conditions: three days
Protocol: (§4) Cells were plated at 5,000 cells per well in 24-well plates, treated for three days, then counted. Cell number was normalized to the number of cells in untreated control (DMSO) cells, also after three days.

[2] = system: WM115 (Melanoma) human cancer cell line; conditions: three days
Protocol: as §4

[3] = system: PC-3 (Prostate) human cancer cell line; conditions: three days
Protocol: as §4

[4] = system: HCT-116 (human colon carcinoma); assay: cells; conditions: for times more potent than sansalvamide A toward HCT-116: relative to sansalvamide A
Source text: The HCT-116 human colon adenocarcinoma screen is a tissue culture first line assay to detect inherent cytotoxicity against malignant cancer cells. This strain is considered to be an “indicator strain” by many for the selection of inhibitors that target solid tumors. The assay is a calorimetric endpoint assay which can be produced in 96-well format trays. Data are acquired by plate reader and dose response curves are produced by computer analysis. […] This assay is run routinely as described below and would be understood in the art.
1. Media (1000 mL McCoy's 5A Medium, 114 mL Fetal Bovine Serum, 25 mL Hepes buffer solution (IM), 12.5 mL Penicillin-Streptomycin solution)
2. Cell line (HCT-116, human colon cancer cell line)
3. Indicator (MTS and PMS in DPBS)
5. Standard anticancer drug (etoposide (VP-16); stock is 4 mg/mL in DMSO
6. DPBS (without CaCl2 and MgCl2)
1. Remove medium from the cells and rinse with 10 mL sterile DPBS.
3. Allow to stand in hood for 1 minute.
4. Remove trypsin with sterile pipette.
5. Allow flask to stand in hood for 2-5 minutes.
6. Add 10 mL of media to flask and pipette up and down to gently break up cell clumps.
7. Count the number of cells using a hemacytometer.
8. Determine # of plates needed, and total volume of cell suspension (16 or 18 mL per plate).
9. Dilute cells to a final concentration of 2.5×10^4 cells/mL in a sterile flask.
10. Pour cell suspension into a sterile trough.
For Serial Dilution Plates
1. Add 175 μL to each well in the first row of a 96 well plate.
2. Add 150 μL to the rest of the wells in A1-A10 & A12.
3. In row 11 add 150 μL cell suspension to the first 6 wells and only media to the last two.
For Single Concentration Plates
1. Add 150 μL of sterile media to G11 & H11.
2. Add 150 μL of cell suspension to all other wells.
3. Add 25 μL more to well H1.
Incubate plates overnight at 37° C. & 5% CO2
1. Add 25 μL of test compounds @ 10 mg/mL to A1-A10, 25 μL of DMSO to A11 & 25 μL of etoposide (4 mg/mL) to A12.
2. Using a twelve channel pipette, mix well then remove 50 μL from the first row and transfer to the next row, repeat down the plate until row F, then remove tip # 11 and continue down plate discarding the last 50 μL.
3. Incubate plates for 72 h.
1. Add 20 μL of MTS/PMS solution to each well.
3. Read plates @490 nm on plate reader.

[5] = system: Caspase-3 activity in PC-3 cells; assay: Caspase-3 activity, fluorometric assay; type: cell-based, human; conditions: relative to DMSO and staurosporin controls
Protocol: Caspase-3 is a mediator of apoptosis, and induction of Caspase-3 activity indicates induction of apoptosis. Activity of Caspase-3 was measured by a fluorometric assay, as described in the literature, referenced above.

AsPC-1 cells = assay: Cell proliferation assay (Guava ViaCount cell number), AsPC-1; type: cell-based, human; conditions: AsPC-1, 10 μM, 72 hours, vs vehicle (DMSO)
Protocol: (§1) Given the results of the preceding example, several compounds of this invention were tested against human pancreatic cancer cell lines. Two cancer cell lines were selected: S2-013 (well-differentiated) and AsPC-1 (poorly differentiated). These cell lines were purchased from American Type Culture Collection (Manassas, Va.). Both cell lines were grown in DMEM and plated as monolayers in the medium supplemented with 10% fetal bovine serum in a humidified atmosphere of […] and 5% CO2 at 37° C. The cells were regularly seeded into 75 cm^2 flasks with media changes every second or third day. For experiments, cells were grown to 70% confluence, digested with trypsin-EDTA, and plated in either 6-, 24-, or 48-well plates.
(§2) Cell Proliferation Assay. Cells were regularly seeded into three 6-well plates and incubated at 37° C. for 24 hours. Cells were then cultured in serum-free medium for another 24 hours and treated in fresh serum-free medium with or without 10 μM of cyclic peptide 1k for 24, 48, and 72 hours. At the end of each time period, the cells were trypsinized to produce a single cell suspension, and the cell number in each well was determined using Guava Technologies=ViaCount Assay (Guava Technologies Inc, Hayward, Calif.).
(§3) Statistical Analysis. Data were analyzed by ANOVA with Dunnett's or Bonferoni's corrections for multiple comparisons, as appropriate. This analysis was performed with the Prism software package (GraphPad, San Diego, Calif.). Data were expressed as mean±SEM.

S2-013 cell line = assay: Cell proliferation assay (Guava ViaCount cell number), S2-013; type: cell-based, human; conditions: S2-013, 10 μM, 72 hours, vs vehicle (DMSO)
Protocol: as §1, §2, §3

IC50 ([4]; Homo sapiens, HCT-116) | Compound | Fold Induction Over DMSO control ([1]; MDA-MB231, 1 μM) | Fold Induction Over DMSO control ([1]; MDA-MB231, 10 μM) | Fold Induction Over DMSO control ([2]; WM115, 1 μM) | Fold Induction Over DMSO control ([2]; WM115, 10 μM) | Fold Induction Over DMSO control ([3]; PC-3, 1 μM) | Fold Induction Over DMSO control ([3]; PC-3, 10 μM) | IC50 ([4]; HCT-116 bioassay, Table 1) | Caspase-3 activity [5] | change in number of cells (AsPC-1 cells) | change in number of cells (S2-013 cell line) | times more potent than sansalvamide A toward HCT-116 [4]
– | CC(C)C[C@@H]1NC(=O)[C@H](C(C)C)NC(=O)[C@H](CC(C)C)N(C)C(=O)[C@H](CC(C)C)NC(=O)[C@H](Cc2ccc(Br)cc2)NC1=O [Compound 1e] (cyclo([Phe(4-Br)]L[NMeL]VL)) | 1.20 | 0.82 | 0.89 | 0.95 | 0.62 | 0.82 | – | – | – | – | –
– | CC(C)C[C@@H]1NC(=O)[C@H](Cc2ccc(Br)cc2)NC(=O)[C@H](CC(C)C)NC(=O)[C@H](C(C)C)NC(=O)[C@H](CC(C)C)NC1=O [Compound 1a] (cyclo([Phe(4-Br)]LLVL)) | 0.95 | 0.60 | 0.85 | 0.99 | 0.94 | 0.74 | – | – | – | – | –
– | CC(C)C[C@@H]1NC(=O)[C@H](CC(C)C)NC(=O)[C@H](Cc2ccccc2)N(C)C(=O)[C@H](CC(C)C)NC(=O)[C@H](C(C)C)NC1=O [Compound 1j] (cyclo([NMeF]LLVL)) | 0.78 | 0.82 | 1.75 | 0.60 | 0.86 | 0.8 | – | – | – | – | –
– | CC(C)C[C@@H]1NC(=O)[C@H](C(C)C)NC(=O)[C@H](CC(C)C)OC(=O)[C@H](CC(C)C)NC(=O)[C@H](Cc2ccc(I)cc2)NC1=O (cyclo(L[Phe(4-I)]L[Hica(2S)]V)) | – | – | – | – | – | – | 11.3 µg/mL (≈ 15.9 µM) | – | – | – | –
1.5 µg/mL (≈ 2.55 µM) | COc1cc([C@@H]2c3cc4c(cc3[C@@H](O[C@@H]3O[C@@H]5CO[C@@H](C)O[C@H]5[C@H](O)[C@H]3O)[C@H]3COC(=O)[C@H]23)OCO4)cc(OC)c1O [etoposide, reference compound] | – | – | – | – | – | – | – | – | – | – | –
– | CC(C)C[C@@H]1NC(=O)[C@H](Cc2ccccc2)NC(=O)[C@H](CC(C)C)NC(=O)[C@H](C(C)C)N(C)C(=O)[C@H](CC(C)C)NC1=O [Compound 1f] (cyclo(FLL[NMeV]L)) | 1.04 | 0.26 | 1.00 | 1.06 | 0.92 | 0.74 | – | – | – | – | –
– | CC(C)C[C@@H]1NC(=O)[C@H](C(C)C)NC(=O)[C@H](CC(C)C)N(C)C(=O)[C@H](CC(C)C)NC(=O)[C@H](Cc2ccccc2)NC1=O [Compound 1d] (cyclo(FL[NMeL]VL)) | 1.09 | 0.91 | 0.87 | 0.98 | 0.63 | 0.52 | – | – | – | – | –
– | CC(C)C[C@@H]1NC(=O)[C@H](C(C)C)NC(=O)[C@H](CC(C)C)NC(=O)[C@H](CC(C)C)N(C)C(=O)[C@H](Cc2ccc(Br)cc2)NC1=O [Compound 1c] (cyclo([Phe(4-Br)][NMeL]LVL)) | 0.56 | – | 1.10 | – | 0.75 | – | – | induced | – | – | –
– | CC(C)C[C@@H]1NC(=O)[C@H](C(C)C)NC(=O)[C@H](CC(C)C)OC(=O)[C@H](CC(C)C)NC(=O)[C@H](Cc2ccc(Br)cc2)NC1=O (cyclo(L[Phe(4-Br)]L[Hica(2S)]V)) | – | – | – | – | – | – | 4.5 µg/mL (≈ 6.76 µM) | – | – | – | –
– | CC(C)C[C@@H]1NC(=O)[C@H](Cc2ccccc2)NC(=O)[C@H](CC(C)C)N(C)C(=O)[C@H](C(C)C)NC(=O)[C@H](CC(C)C)NC1=O [Compound 1h] (cyclo(FLLV[NMeL])) | 1.01 | 0.28 | 1.13 | 0.51 | 0.79 | 0.64 | – | – | – | – | –
– | CC(C)C[C@@H]1NC(=O)[C@H](Cc2ccccc2)NC(=O)[C@H](Cc2ccccc2)N(C)C(=O)[C@H](Cc2ccccc2)NC(=O)C(C)(C)NC(=O)[C@H](CC(C)C)N(C)C(=O)[C@@H]2CCCN2C1=O [Scytalidamide A, reference compound] (cyclo(F[NMeF]FLP[NMeL][Aib])) | 2.75 | 0.11 | 1.01 | 0.07 | 0.63 | 0.15 | – | – | significant (p<0.05) decrease | exception | –
– | CC(C)C[C@@H]1NC(=O)[C@H](Cc2ccccc2)NC(=O)[C@H](CC(C)C)NC(=O)[C@H](C(C)C)NC(=O)[C@H](CC(C)C)NC1=O [Compound 1, sansalvamide A peptide] (cyclo(FLLVL)) | 0.91 | 0.69 | 0.92 | 0.56 | 1.03 | 0.90 | 0.98 µg/mL (≈ 1.67 µM) | – | – | – | about 10 times
– | CC(C)C[C@@H]1NC(=O)[C@H](Cc2ccc(Br)cc2)NC(=O)[C@H](CC(C)C)NC(=O)[C@H](C(C)C)N(C)C(=O)[C@H](CC(C)C)NC1=O [Compound 1g] (cyclo([Phe(4-Br)]LL[NMeV]L)) | 0.88 | 0.31 | 1.02 | 0.84 | 0.74 | 0.67 | – | – | – | – | –
– | CC(C)C[C@@H]1NC(=O)[C@H](C(C)C)NC(=O)[C@H](CC(C)C)N(C)C(=O)[C@H](CC(C)C)NC(=O)[C@H](Cc2ccc(Br)cc2)NC1=O [drawing 9] (cyclo([Phe(4-Br)]L[NMeL]VL)) | – | – | – | – | – | – | 0.11 µg/mL (≈ 0.162 µM) | – | – | – | ~100 times
– | CC(C)C[C@@H]1NC(=O)[C@H](C(C)C)NC(=O)[C@H](CC(C)C)NC(=O)[C@H](CC(C)C)N(C)C(=O)[C@H](Cc2ccccc2)NC1=O [Compound 1b] (cyclo(F[NMeL]LVL)) | 0.87 | 0.71 | 1.02 | 3.02 | 1.24 | 0.81 | – | – | – | – | –
